Measurements from patent US11760785B2, “Glucose transporter inhibitor-modified insulin for glucose-responsive insulin delivery” (NORTH CAROLINA STATE UNIVERSITY, priority 2017, dated 2023).

How the values were obtained:
[1] = tested on: glucose transporter (GLUT) on erythrocyte ghosts; assay: binding to erythrocyte ghosts as the model of glucose transporter
Description: In order to conjugate GLUT inhibitors to […], the GLUT inhibitors were first functionalized with an amino group to facilitate their conjugation to insulin (FIGS. 2 and 3). […] For inhibitor 2 (In2), an amino group was introduced through Michael addition reaction while maintaining the main structures unchanged. In order to conjugate insulin to forskolin and inhibitor 2, insulin was firstly reacted with Traut's reagent to introduce a thiol group and used directly for conjugating inhibitors, which was also beforehand reacted with SMCC crosslinker.

diabetic mice [2] = settings: mouse, in vivo, sc
Description: The in vivo therapeutic efficacy of insulin conjugates was evaluated in type 1 diabetic mouse model induced by STZ. The diabetic mice were assigned to four groups treated with insulin conjugates or native insulin. PBS was used as a control.

diabetic mice [3] = assay: multiple intraperitoneal glucose tolerance test; type: in vivo, mouse; settings: subcutaneous injection, 400 IU/kg insulin conjugate
Description: Insulin-F was subcutaneously injected. The dose was set to 400 IU/kg for insulin conjugate. Error bars represent the S.D. of three independent experiments (n=5).
(§1) PBS was used as a control.

[4] = type: physicochemical
Description: Herein, a new strategy utilizing the in situ living cells as the carrier for insulin was developed. […] In addition, the introduction of water-insoluble inhibitors onto insulin can greatly reduce its water solubility at pH 7.4. After subcutaneously injected, insulin conjugate formed a depot beneath the skin, which can slowly release insulin conjugate into the blood. Then, insulin conjugate reaches the GLUT on living cells, including adipose cells, muscle cells and blood cells, during blood circulation and consequently establishing an insulin pool. Of note, the GLUT pool on living cells can also buffer the high level of insulin in blood in the initial period post-injection and works as the reservoir of insulin to smooth the level of blood insulin. The adsorption of insulin-conjugate to cell membranes is in a dynamic balance with insulin conjugate in interstitial fluid and blood under a normoglycemic state. The insulin conjugate binding on living cell membranes can be released in a glucose-triggered manner under a hyperglycemic state because of the competitive binding from elevated glucose level.
In order to conjugate GLUT inhibitors to […], the GLUT inhibitors were first functionalized with an amino group to facilitate their conjugation to insulin (FIGS. 2 and 3). For forskolin, the introduction of the amino group and alkyl chains can enhance its binding affinity to GLUT. […]

[5] = tested on: type 1 diabetic mouse model induced by STZ; assay: in vivo therapeutic efficacy, blood glucose levels in type 1 diabetic mice; settings: STZ type 1 diabetic mice; 300 IU/kg insulin conjugate, 150 IU/kg free insulin
Description: PBS was used as a control. The dose was set to 300 IU/kg for insulin conjugate and 150 IU/kg for free insulin to avoid severe hypoglycemia. Error bars represent the S.D. of three independent experiments (n=3).
as §1

Q: With `C=C1[C@@H](C)[C@H]2[C@H](Cc3ccccc3)NC(=O)[C@]23OC(=O)/C=C/[C@H](O)CCC[C@@H](C)C/C=C/[C@H]3[C@@H]1O` [cytochalasin B, reference compound] as the molecule, how does the “inhibition of insulin-F binding on erythrocyte ghosts” value ([1]; competitor against insulin-F binding, indicates the binding is GLUT specific) read?
A: could be inhibited

Q: With “insulin-forskolin: insulin conjugated via Traut's reagent thiol and SMCC crosslinker to amino-functionalized forskolin, a GLUT inhibitor” as the molecule, how does the “binding to erythrocyte ghost membrane” value ([1]; erythrocyte ghosts as the model of glucose transporter) read?
A: able to bind to membrane

Q: What about the “long-lasting behavior by living imaging” value (diabetic mice [2]) of the same molecule?
A: long-lasting behavior of insulin-F was further confirmed

Q: And the “blood-glucose-regulating ability in multiple glucose tolerance test” value (diabetic mice [3])?
A: long-lasting blood-glucose-regulating ability

Q: What about the “solubility at pH 7.4” value [4] of the same molecule?
A: insoluble

Q: For insulin [free insulin], which “time blood glucose level maintained within the normal range (<200 mg/dL)” value [5] is on record?
A: three
